Data published in ChEMBL document CHEMBL1141819, “Antimycobacterial triterpenes from Melia volkensii” (1999).
Values after ≈ are worked out from the molar mass of the structure shown.

What follows are compounds tested on Mycobacterium tuberculosis (assay: Antimycobacterial activity against Mycobacterium tuberculosis H37Rv ATCC 27294 by radiorespirometric bioassay).
Type: functional

SMILES	MIC [mg/L]
CC(C)=CCC[C@H]1C(=O)O[C@H]2C[C@]3(C)C4=C[C@@H](O)[C@H]5C(C)(C)C(=O)CC[C@]5(C)[C@H]4CC[C@@]3(C)[C@@H]21	4 (≈ 8.53 µM)
CC(=O)[C@H](CCC=C(C)C)[C@@H]1[C@@H](O)C[C@]2(C)C3=CC[C@H]4C(C)(C)C(=O)CC[C@]4(C)[C@H]3CC[C@@]12C [KULONATE]	16 (≈ 34.1 µM)
CC(C)=CCC[C@H]1C(=O)O[C@H]2C[C@]3(C)C4=CC[C@H]5C(C)(C)C(=O)CC[C@]5(C)[C@H]4C[C@@H](O)[C@@]3(C)[C@@H]21	16 (≈ 34.1 µM)
